# Measurements: patent US7531500B2, “Preventing airway mucus production by administration of EGF-R antagonists” (The Regents of the University of California, priority 1998, dated 2009)
# How the values were obtained:
# pathogen-free rats [1] = assay: IL-13-induced goblet cell metaplasia in rat airways; format: in vivo; conditions: pretreatment
# Experimental: Animals were anesthetized with pentobarbital [Nembutal sodium, 50 mg/kg, intraperitoneally (ip), Abbott Laboratories, North Chicago, Ill.] and allowed to breathe spontaneously. Vehicle (phosphate buffer solution, PBS) or IL-13 was instilled intratracheally via a 20-gauge Angiocath catheter (Beckton Dickinson, Sandy, Utah) through the mouth, while the laryngeal area was visualized using a high-intensity illuminator (FiberLite; Dolan Jenner Industries, Inc., Lawrence, Mass.). The […] tissues were examined 48 hours after instillation of IL-13. Various concentrations of IL-13 (recombinant murine IL-13; 5, 50, 100, and 500 ng/rat, R&D systems, Minneapolis, Minn.) were instilled into the trachea in […]. Sterile PBS (200 μl) was instilled into the trachea as controls. For examination of the relationship between IL-13-induced GC metaplasia and activation of EGFR, animals were pretreated 1 d before instillation of IL-13 and daily thereafter with a selective EGFR tyrosine kinase inhibitor (BIBX 1522; 1-30 mg/kg/day, ip; Boehringer Ingelheim, Ingelheim, Germany). Animals were euthanized 48 hours after instillation of IL-13. In preliminary studies, we noted that IL-13 causes leukocyte recruitment into the airways. We hypothesized that leukocyte recruitment results from IL-13-induced chemoattractant release from epithelium, and that this recruitment is involved in the IL-13-induced EGFR cascade leading to GC metaplasia. Groups of animals were euthanized 4, 8, 16, 24, and 48 hours after instillation of IL-13 (500 ng), and leukocytes were counted in airway tissue. […] Sigma chemical Co., St Louis, Mo.] or with a blocking antibody to interleukin-8 (IL-BAb; rabbit anti-human IL-8 antibody; Biosource, Camarillo, Calif.). […] In another series of studies, we instilled IL-8 Ab (10 μg/rat) intratracheally, along with IL-13; we repeated the instillation of anti-human IL-8 blocking antibody at 12 hour intervals until the animals were euthanized. Animals were euthanized with a lethal dose of pentobarbital (Nembutal sodium, 200 mg/kg, ip, Abbott Laboratories, North Chicago, Ill.), and the systemic circulation was perfused with 1% paraformaldehyde in Diethylpyrocarbonate (DEPC, Sigma chemical Co., St Louis, Mo.)-treated PBS via the left ventricle. For frozen sections, […] tissues were removed, placed in 4% paraformaldehyde overnight, and then placed in 30% sucrose for cryoprotection. The tissues were embedded in optimal cutting temperature (OCT, […]., Inc., Torrance, Calif.) compound. For plastic or paraffin sections, tissues were placed in 4% paraformaldehyde overnight, dehydrated with ethanol, and embedded in JB-4 plus monomer solution A (Polysclences, Inc., Warrington, Pa.) or in paraffin. The embedded tissues were cut as cross sections 4 μm thick and placed on glass slides. In all studies, the carina was examined to obtain consistent sampling. We measured AB/PAS-positive areas and total epithelial area, and we expressed the results as the percentage of AB/PAS area to total epithelial area. The analysis was performed with the public domain NIH IMAGE program (developed at the U.S. National Institutes of Health and available by anonymous FTP from zippy.nimh.gov. or floppy disk from the National Technical Information Service, Springfield, Va., part number PB95-500195GEI). […] For immunohistochemical localization of […], we used mouse anti-human IL-8 antibody (1:20; Biosource, Camarillo, Calif.). The sections were then incubated with biotinylated horse anti-mouse IgG (Vector Laboratories, Burlingame, Calif.) at 1:200 dilution for 1 hour at room temperature. Bound antibody was visualized according to standard protocols for avidin-biotin-peroxidase complex method. The measurement of MUC5AC protein also utilized the same method used for quantitative measurement of GC metaplasia in the epithelium. Animals were euthanized 4, 8, 16, 24, and 48 hours after instillation of IL-13 (500 ng), and leukocytes were counted in airway tissue. […]
# pathogen-free rats [2] = assay: Agarose plug-induced goblet cell metaplasia in pathogen-free rats; format: in vivo, rat
# Experimental: Protocol of experiments. We studied pathogen-free rats, because they normally have few goblet cells in airways. The animals were anesthetized with methohexital sodium (Brevital, 25 mg/kg, i.p.). The trachea was exposed aseptically with a midline cervical incision, and agarose plugs were instilled into a bronchus via a 20 gauge Angiocath (Becton Dikinson, Sandy, Utah) connected to polyethylene tubing (PE 90, internal diameter 0.86 mm and outer diameter 1.27 mm, Clay Adams, Parsippany, N.Y.) threaded into the incised trachea. The polyethylene tube was bent at a 30° angle to allow selective instillation into the right bronchus. After instillation, the incision was closed with a suture.
# To evaluate the role of EGF-R on agarose plug-induced goblet cell metaplasia, animals were treated with BIBX1522 (80 mg/kg, i.p.) 1 h before instillation of the agarose plugs and repeated daily (40 mg/kg, i.p., bid). Animals were euthanized 24, 48 or 72 h after instillation of the agarose plugs.
# The first treatment (100 μl in 0.2 ml saline, i.p.) was given 1 h before the instillation of agarose plugs, and i.p. injections were repeated daily.
# To study the effect of neutrophils on agarose plug-induced goblet cell metaplasia, rats were pretreated with cyclophosphamide (an inhibitor of bone marrow leukocytes) or with a combination of cyclophosphamide plus NPC 15669. Cyclophosphnamide (100 mg/kg, i.p.) was given 5 d before instillation of agarose plugs, and a second injection of cyclophosphamide (50 mg/kg, i.p.) was given 1 d before instillation of plugs. In studies with NPC 15669, the drug (10 mg/kg, i.p.) was injected 1 h before instillation of agarose plugs, and then daily for 3 d thereafter.
# Tissue preparation. At various times after agarose plug instillation, rats were anesthetized with sodium pentobarbital (65 mg/kg, i.p.), the systemic circulation was perfused with 1% paraformaldehyde in diethyl pyrocarbonate-treated PBS at a pressure of 120 mmHg. The right lung was removed, and the right caudal lobe was used for histology. For frozen sections, tissues were removed and placed in 4% paraformaldehyde for 1 h and then replaced in 30% sucrose for cryoprotection overnight. The tissues were embedded in O.C.T. compound (Sakura Finetek U.S.A., Inc., Torrance, Calif.). For methacrylate sections, the tissues were placed in 4% paraformaidehyde for 24 h and then dehydrated with graded concentrations of ethanol and embedded in methacrylate JB-4 (Polysciences, Inc., Warrington, Pa.). Tissue sections (4 μm thick) were stained with Alcian blue/PAS and counterstained with hematoxylin.
# Morphoometric analysis of bronchial epithelium. The percentage of Alcian blue/PAS-stained area of mucous glycoconjugates in the epithelium was determined using a semi-automatic image analysis system according to previously published methods. The area of epithelium and Alcian blue/PAS-stained mucous conjugates within the epithelium was manually circumscribed and analyzed using the NIH Image program (developed at the U.S. National Institutes of health and available from the internet by ananymous FTP or from a floppy disk from the National Technical Information Service, Springfield, Va.; part number PB95-500195GEI). The data are expressed as the percentage of the total epithelial area occupied by Alcian blue/PAS stain. […] The percentage of denuded epithelium was determined by calculating the ratio of the length of denuded epithelium to the total epithelial length.
# Identification of cell types in methacrylate sections and cell analysis. The total number of epithelial cells was determined by counting epithelial cell nuclei over 2 mm of the basal lamina with an oil immersion objective lens (×1000 magnification). The linear length of the basal lamina under each analyzed region of epithelium was determined by tracing the contour of the digitalized image of the basal lamina. The epithelia; cells were identified as described previously.
smiles,measurement,setting,value
O=P1(N(CCCl)CCCl)NCCCO1 (stereo not shown) [cyclophosphamide],IL-13-induced TNFα expression,pathogen-free rats [1],prevented
same,IL-13-induced leukocyte recruitment into airways,pathogen-free rats [1],inhibited
same,IL-13-induced mucin production,pathogen-free rats [1],prevented
same,neutrophil count in venous blood,"pathogen-free rats [2]; after cyclophosphamide 100 mg/kg then 50 mg/kg i.p., n=5",1.8±0.5%
same,agarose plug-induced EGF-R protein expression,"pathogen-free rats [2]; rat, in vivo",inhibited
same,agarose plug-induced goblet cell metaplasia (Alcian blue/PAS-positively stained cells),"pathogen-free rats [2]; rat, in vivo",inhibited
same,macrophage recruitment after agarose plugs,"pathogen-free rats [2]; rat, in vivo",did not inhibit
same,plug-induced neutrophil recruitment in BAL,"pathogen-free rats [2]; rat, in vivo",inhibited
same,number of neutrophils in the airway lumen,"pathogen-free rats [2]; treated rats with plugs, 24 h",2.6±0.3 /mm of basal lamina
same,number of neutrophils in the epithelium,"pathogen-free rats [2]; treated rats with plugs, 24 h",0.8±0.2 /mm
